Test results: the NIST ThermoML archive (doi:10.1021/acs.jced.8b00837)
“And” between values parts separate entries of the source, which are not always exact repeats. Equal entries are not always repeated. Numbers after ± are expanded uncertainties.

Settings: Liquid, Vibrating tube method

CCCCn1cc[n+](C)c1.O=S(=O)([O-])C(F)(F)F [1-butyl-3-methylimidazolium trifluoromethanesulfonate]
Settings | mass density
333.15 K, 79293 kPa | 1313.31 ± 2.5 kg/m3
333.15 K, 89992 kPa | 1318.4 ± 2.7 kg/m3
333.15 K, 98041 kPa | 1322.14 ± 2.8 kg/m3
333.15 K, 109813 kPa | 1327.45 ± 3 kg/m3
333.16 K, 49998 kPa | 1298.5 ± 2.1 kg/m3
333.16 K, 59777 kPa | 1303.59 ± 2.2 kg/m3
333.16 K, 119774 kPa | 1331.81 ± 3.1 kg/m3
333.16 K, 129813 kPa | 1336.09 ± 3.3 kg/m3
333.16 K, 138881 kPa | 1339.86 ± 3.5 kg/m3
333.17 K, 39827 kPa | 1293.05 ± 1.9 kg/m3
343.15 K, 101 kPa | 1262.32 ± 1.4 kg/m3
353.13 K, 5397 kPa | 1257.9 ± 1.5 kg/m3
353.14 K, 1725 kPa | 1255.5 ± 1.4 kg/m3
353.14 K, 10408 kPa | 1261.13 ± 1.5 kg/m3
353.14 K, 60245 kPa | 1290.27 ± 2.2 kg/m3
353.14 K, 69993 kPa | 1295.39 ± 2.3 kg/m3
353.14 K, 79196 kPa | 1300.06 ± 2.4 kg/m3
353.14 K, 119409 kPa | 1318.82 ± 3 kg/m3
353.15 K, 101 kPa | 1254.61 ± 1.4 kg/m3 and 1254.43 ± 1.4 kg/m3
353.15 K, 49992 kPa | 1284.69 ± 2 kg/m3
353.15 K, 89993 kPa | 1305.36 ± 2.6 kg/m3
353.15 K, 97743 kPa | 1309.04 ± 2.7 kg/m3
353.15 K, 109795 kPa | 1314.57 ± 2.9 kg/m3
353.15 K, 129794 kPa | 1323.26 ± 3.2 kg/m3
353.16 K, 40316 kPa | 1279.23 ± 1.9 kg/m3
353.16 K, 139089 kPa | 1327.11 ± 3.4 kg/m3
353.17 K, 29996 kPa | 1273.21 ± 1.8 kg/m3
353.19 K, 20124 kPa | 1267.23 ± 1.6 kg/m3
373.12 K, 78937 kPa | 1286.82 ± 2.4 kg/m3
373.14 K, 1630 kPa | 1240.5 ± 1.5 kg/m3
373.14 K, 4913 kPa | 1242.76 ± 1.5 kg/m3
373.14 K, 40245 kPa | 1265.34 ± 1.9 kg/m3
373.14 K, 69993 kPa | 1282.13 ± 2.2 kg/m3
373.14 K, 89993 kPa | 1292.43 ± 2.5 kg/m3
373.14 K, 99354 kPa | 1297.01 ± 2.6 kg/m3
373.14 K, 109823 kPa | 1301.97 ± 2.8 kg/m3
373.15 K, 101 kPa | 1239.37 ± 1.5 kg/m3 and 1239.44 ± 1.5 kg/m3
373.15 K, 20238 kPa | 1252.94 ± 1.7 kg/m3
373.15 K, 29993 kPa | 1259.1 ± 1.8 kg/m3
373.15 K, 49994 kPa | 1271.05 ± 2 kg/m3
373.15 K, 59359 kPa | 1276.34 ± 2.1 kg/m3
373.15 K, 118844 kPa | 1306.11 ± 2.9 kg/m3
373.15 K, 129824 kPa | 1311 ± 3.1 kg/m3
373.15 K, 139225 kPa | 1315.08 ± 3.2 kg/m3
373.16 K, 10553 kPa | 1246.58 ± 1.6 kg/m3
393.12 K, 20141 kPa | 1238.76 ± 1.6 kg/m3
393.13 K, 29997 kPa | 1245.39 ± 1.7 kg/m3
393.13 K, 39789 kPa | 1251.72 ± 1.8 kg/m3
393.14 K, 10362 kPa | 1231.9 ± 1.5 kg/m3
393.14 K, 99285 kPa | 1284.99 ± 2.6 kg/m3
393.14 K, 118691 kPa | 1294.13 ± 2.9 kg/m3
393.15 K, 101 kPa | 1224.37 ± 1.4 kg/m3 and 1224.41 ± 1.4 kg/m3
393.15 K, 49984 kPa | 1258.04 ± 1.9 kg/m3
393.15 K, 69997 kPa | 1269.67 ± 2.2 kg/m3
393.15 K, 89992 kPa | 1280.34 ± 2.4 kg/m3
393.15 K, 109795 kPa | 1290.04 ± 2.7 kg/m3
393.15 K, 129796 kPa | 1299.01 ± 3 kg/m3
393.15 K, 139693 kPa | 1303.18 ± 3.2 kg/m3
393.16 K, 60109 kPa | 1264.05 ± 2 kg/m3
393.16 K, 79320 kPa | 1274.76 ± 2.3 kg/m3
393.17 K, 1385 kPa | 1225.37 ± 1.5 kg/m3
393.18 K, 5168 kPa | 1228.15 ± 1.5 kg/m3
413.13 K, 1691 kPa | 1210.63 ± 1.4 kg/m3
413.13 K, 99873 kPa | 1273.17 ± 2.5 kg/m3
413.15 K, 101 kPa | 1209.6 ± 1.4 kg/m3 and 1209.39 ± 1.4 kg/m3
413.15 K, 5006 kPa | 1213.19 ± 1.5 kg/m3
413.15 K, 80334 kPa | 1262.84 ± 2.2 kg/m3
413.15 K, 89994 kPa | 1268.07 ± 2.4 kg/m3
413.15 K, 109886 kPa | 1278.08 ± 2.6 kg/m3
413.17 K, 129886 kPa | 1287.14 ± 2.9 kg/m3
413.17 K, 139479 kPa | 1291.12 ± 3.1 kg/m3
413.18 K, 69993 kPa | 1256.95 ± 2.1 kg/m3
413.18 K, 119193 kPa | 1282.42 ± 2.8 kg/m3
413.2 K, 10288 kPa | 1217.19 ± 1.5 kg/m3
413.2 K, 19961 kPa | 1224.32 ± 1.6 kg/m3
413.2 K, 29916 kPa | 1231.38 ± 1.7 kg/m3
413.2 K, 39957 kPa | 1238.21 ± 1.8 kg/m3
413.2 K, 49993 kPa | 1244.75 ± 1.9 kg/m3
413.21 K, 59956 kPa | 1250.96 ± 2 kg/m3
